Molecular target: T1, renin (Homo sapiens, UniProt P00797)
T1 sequence (P00797 67-406): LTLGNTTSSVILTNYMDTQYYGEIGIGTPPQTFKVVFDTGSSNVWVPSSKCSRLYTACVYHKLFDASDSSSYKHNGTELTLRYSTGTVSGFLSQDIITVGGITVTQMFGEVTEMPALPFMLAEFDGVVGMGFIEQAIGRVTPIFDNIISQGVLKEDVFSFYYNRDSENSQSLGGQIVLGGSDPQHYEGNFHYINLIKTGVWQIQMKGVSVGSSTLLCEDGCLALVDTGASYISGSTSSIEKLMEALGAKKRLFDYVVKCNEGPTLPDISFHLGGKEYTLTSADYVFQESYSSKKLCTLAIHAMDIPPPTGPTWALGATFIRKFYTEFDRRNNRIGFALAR
Experiment: in vitro renin inhibition, radioimmunoassay for angiotensin I
Format: biochemical
Conditions: incubated for two hours at 37° in the presence of angiotensinogen, read-out: IC50 (molar concentration of test compound causing a 50% inhibition of the renin activity)
Protocol: The compounds of the present invention are valuable because of their ability to inhibit renin in an in vitro assay. Activity is determined by a standard radioimmunoassay for angiotensin I. In the assay, the enzyme renin, incubated for two hours at 37° in the presence of a substrate, angiotensinogen, generates the product angiotensin I. Test compounds are added to the incubation mixture. Relative activity is reported as the IC50, which is the molar concentration of test compound causing a 50% inhibition of the renin activity.
The in vitro test employed is more fully described in "Methods in Enzymatic Analysis", Bergmeyer, J., and Grass, N., eds., 3rd edition Weinheim: Verlag Chemie, pp. 251-258 (1984).

Row | IC50 | Structure (SMILES)
1 | 1000 nM | CC(C)C[C@H](NC(=O)[C@H](Cc1c[nH]cn1)NC(=O)[C@H](Cc1ccccc1)NC(=O)OC(C)(C)C)C(O)C(=O)OC(C)C (some centres unmarked) [Example 1]
2 | 140 nM | CC(C)C[C@H](NC(=O)[C@H](Cc1c[nH]cn1)NC(=O)C(Cc1cccc2ccccc12)Cc1cccc2ccccc12)[C@@H](O)C(=O)OC(C)C [Example 1b, [2R-[2R*,3S*(S*)]]-2-hydroxy-3-[[-3-(1H-imidazol-4-yl)-2-[[3-(1-naphthalenyl)-2-(1-naphthalenylmethyl)-1-oxopropyl]amino]-1-oxopropyl]amino]-5-methylhexanoic acid, 1-methylethyl ester]

From patent publication US5135914A, “Substituted derivatives of 3-amino-2-hydroxypropionic acid as inhibitors of renin” (Warner-Lambert Company, priority 1988, dated 1992)
